{"source": "patent US8592426B2", "about": "“Aryl-benzocycloalkyl amide derivatives” (Hoffmann—La Roche Inc., priority 2011, dated 2013)", "key": {"[1]": {"molecular_target": "T1, Bradykinin-1 receptor (Homo sapiens (Human), UniProt P46663)", "T1 sequence (P46663 whole entry)": "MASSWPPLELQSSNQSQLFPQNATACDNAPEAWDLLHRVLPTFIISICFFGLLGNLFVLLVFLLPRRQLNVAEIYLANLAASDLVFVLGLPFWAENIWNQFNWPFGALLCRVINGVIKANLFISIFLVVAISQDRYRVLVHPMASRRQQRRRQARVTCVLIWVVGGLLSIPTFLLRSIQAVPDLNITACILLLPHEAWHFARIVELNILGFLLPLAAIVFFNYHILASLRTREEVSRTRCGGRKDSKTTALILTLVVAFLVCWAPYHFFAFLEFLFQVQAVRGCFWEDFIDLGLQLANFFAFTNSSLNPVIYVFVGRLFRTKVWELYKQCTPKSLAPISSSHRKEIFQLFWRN", "test": "Receptor binding assay (B1R Binding Assay), [3H]-Kallidin (Des Arg10, Leu9) displacement", "conditions": "membranes from CHO-K1 cells overexpressing Bradykinin-1 receptor; 6 nM radioligand", "method": "Binding assays were done with membranes from CHO-K1 cells overexpressing Bradykinin-1 receptor.\nTo determine non-specific binding 10 μM Lys-(Des-Arg^9)-Bradykinin (Bachem) was added. Membranes were harvested through GF/B (glass fiber filter; PerkinElmer) plates, equilibrated with 0.5% polyethylenimine, air dried at 50° C. for 2 h. Radioactivity was determined by counting in a topcounter (NXT Packard)."}, "[2]": {"molecular_target": "T1, Bradykinin-1 receptor", "test": "Calcium mobilization assay (FLIPR, Fluo-4) in GeneBLAzer Bradykinin (B1)-NFAT-bla CHO-K1 cells", "assay_type": "cell-based", "conditions": "antagonist activity; CHO-K1 cells stably overexpressing the human bradykinin 1 receptor; read-out: Ca mobilization Assay IC50", "method": "Calcium Mobilization Assay\nGeneBLAzer® Bradykinin (B1)-NFAT-bla CHO-K1 cells (from Invitrogen) stably overexpressing the human bradykinin 1 receptor were cultured in DMEM (high glucose) supplemented with 10% dialysed FBS, 1% NEAA (non essential amino acids) 1% penicillin/streptomycin, 1% G418 and 0.1 mg/ml zeocin.\nFor the assay cells were grown overnight in 384-well black clear flat bottom polystyrene plates (Costar) at 37° C. at 5% CO2. After washing with DMEM, 20 mM Hepes, 2.5 mM probenecid, 0.1% BSA (DMEM assay buffer) cells were loaded with 4 μM Fluo-4 in the same DMEM assay buffer for 2 hours at 30° C. Excess dye was removed and cells were washed with DMEM assay buffer. 384-well compound plates were prepared with DMEM assay buffer/0.5% DMSO with or without various concentrations of test compounds. Usually compounds were tested for agonist and antagonist activity.\nTest compounds were added to the assay plate and agonist activity was monitored as fluorescence for 80 seconds with a FLIPR (488 nm excitation; 510-570 nm emission; Molecular Devices). After 20-30 min. of incubation at 30° C., 20 nM […] (R&D; Roche) was added and fluorescence was monitored again for 80 seconds. Increases in intracellular calcium are reported as maximum fluorescence after agonist exposure minus basal fluorescence before exposure."}}, "data": [{"compound": "COC(=O)c1ccccc1-c1ccc2c(c1)CCC2NC(=O)C1(NC(=O)C(F)(F)F)CC1", "note": "(racemic) [Example 1, (rac)-2-(1-{[1-(2,2,2-Trifluoro-acetylamino)-cyclopropanecarbonyl]-amino}-indan-5-yl)-benzoic acid methyl ester]", "values": [{"measurement": "Ki", "setting": "[1]", "result": 2170, "unit": "nM"}, {"measurement": "IC50", "setting": "[2]", "result": 2250, "unit": "nM"}]}, {"compound": "Cc1nc(-c2c(F)cc(Cl)cc2-c2ccc3c(c2)CC[C@@H]3NC(=O)C2(NC(=O)c3cncnc3)COC2)no1", "note": "[Example 50, Pyrimidine-5-carboxylic acid (3-{(S)-5-[5-chloro-3-fluoro-2-(5-methyl-[1,2,4]oxadiazol-3-yl)-phenyl]-indan-1-ylcarbamoyl}-oxetan-3-yl)-amide]", "values": [{"measurement": "Ki", "setting": "[1]", "result": 4.8, "unit": "nM"}, {"measurement": "IC50", "setting": "[2]", "result": 0.4, "unit": "nM"}]}, {"compound": "COc1cc(C(=O)NC2(C(=O)NC3CCc4cc(-c5cc(Cl)cc(F)c5-c5noc(C)n5)cnc43)CC2)on1", "note": "(racemic) [Example 38, 3-Methoxy-isoxazole-5-carboxylic acid(1-{(rac)-3-[5-chloro-3-fluoro-2-(5-methyl-[1,2,4]oxadiazol-3-yl)-phenyl]-6,7-dihydro-5H-[1]pyrindin-7-ylcarbamoyl}-cyclopropyl)-amide]", "values": [{"measurement": "Ki", "setting": "[1]", "result": 3, "unit": "nM"}, {"measurement": "IC50", "setting": "[2]", "result": 0.2, "unit": "nM"}]}, {"compound": "COc1cc(C(=O)NC2(C(=O)N[C@H]3CCc4cc(-c5cc(Cl)cc(F)c5-c5noc(C)n5)ccc43)COC2)on1", "note": "[Example 53, 3-Methoxy-isoxazole-5-carboxylic acid (3-{(S)-5-[5-chloro-3-fluoro-2-(5-methyl-[1,2,4]oxadiazol-3-yl)-phenyl]-indan-1-ylcarbamoyl}-oxetan-3-yl)-amide]", "values": [{"measurement": "Ki", "setting": "[1]", "result": 3.6, "unit": "nM"}, {"measurement": "IC50", "setting": "[2]", "result": 0.4, "unit": "nM"}]}, {"compound": "Cn1nnc(-c2c(F)cc(Cl)cc2-c2cnc3c(c2)CCC3NC(=O)C2(NC(=O)C(F)(F)F)CC2)n1", "note": "(racemic) [Example 13, 1-(2,2,2-Trifluoro-acetylamino)-cyclopropanecarboxylic acid{(rac)-3-[5-chloro-3-fluoro-2-(2-methyl-2H-tetrazol-5-yl)-phenyl]-6,7-dihydro-5H-[1]pyrindin-7-yl}-amide]", "values": [{"measurement": "Ki", "setting": "[1]", "result": 9.5, "unit": "nM"}, {"measurement": "IC50", "setting": "[2]", "result": 0.5, "unit": "nM"}]}, {"compound": "Cn1nnc(-c2c(F)cc(Cl)cc2-c2cnc3c(c2)CCC3NC(=O)C2(NC(=O)OC(C)(C)C)CC2)n1", "note": "(racemic) [Example 54, (1-{(rac)-3-[5-Chloro-3-fluoro-2-(2-methyl-2H-tetrazol-5-yl)-phenyl]-6,7-dihydro-5H-[1]pyrindin-7-ylcarbamoyl}-cyclopropyl)-carbamic acid tert-butyl ester]", "values": [{"measurement": "Ki", "setting": "[1]", "result": 63.2, "unit": "nM"}, {"measurement": "IC50", "setting": "[2]", "result": 5.8, "unit": "nM"}]}, {"compound": "COC(=O)c1c(Cl)cccc1-c1ccc2c(c1)CCCC2NC(=O)C1(NC(=O)C(F)(F)F)CC1", "note": "(racemic) [Example 10, (rac)-2-Chloro-6-(5-{[1-(2,2,2-trifluoro-acetylamino)-cyclopropanecarbonyl]-amino}-5,6,7,8-tetrahydro-naphthalen-2-yl)-benzoic acid methyl ester]", "values": [{"measurement": "Ki", "setting": "[1]", "result": 522, "unit": "nM"}, {"measurement": "IC50", "setting": "[2]", "result": 118, "unit": "nM"}]}, {"compound": "Cc1nc(-c2c(F)cc(Cl)cc2-c2cc(F)c3c(c2)CCC3NC(=O)C2(NC(=O)OC(C)(C)C)CC2)no1", "note": "(racemic) [Example 31, (1-{(rac)-5-[5-Chloro-3-fluoro-2-(5-methyl-[1,2,4]oxadiazol-3-yl)-phenyl]-7-fluoro-indan-1-ylcarbamoyl}-cyclopropyl)-carbamic acid tert-butyl ester]", "values": [{"measurement": "Ki", "setting": "[1]", "result": 475, "unit": "nM"}, {"measurement": "IC50", "setting": "[2]", "result": 135, "unit": "nM"}]}, {"compound": "COc1ncc(C(=O)NC2(C(=O)NC3CCc4cc(-c5cc(Cl)cc(F)c5-c5noc(C)n5)cnc43)CC2)cn1", "note": "(racemic) [Example 42, 2-Methoxy-pyrimidine-5-carboxylic acid(1-{(rac)-3-[5-chloro-3-fluoro-2-(5-methyl-[1,2,4]oxadiazol-3-yl)-phenyl]-6,7-dihydro-5H-[1]pyrindin-7-ylcarbamoyl}-cyclopropyl)-amide]", "values": [{"measurement": "Ki", "setting": "[1]", "result": 4, "unit": "nM"}, {"measurement": "IC50", "setting": "[2]", "result": 0.2, "unit": "nM"}]}, {"compound": "Cc1nc(-c2c(F)cc(Cl)cc2-c2ccc3c(c2)OCC3NC(=O)C2(N)CC2)no1", "note": "(racemic) [Example 45, 1-Amino-cyclopropanecarboxylic acid{(rac)-6-[5-chloro-3-fluoro-2-(5-methyl-[1,2,4]oxadiazol-3-yl)-phenyl]-2,3-dihydro-benzofuran-3-yl}-amide]", "values": [{"measurement": "Ki", "setting": "[1]", "result": 1530, "unit": "nM"}, {"measurement": "IC50", "setting": "[2]", "result": 701, "unit": "nM"}]}, {"compound": "Cc1nc(-c2c(F)cc(Cl)cc2-c2ccc3c(c2)SCC3NC(=O)C2(NC(=O)C(F)(F)F)CC2)no1", "note": "(racemic) [Example 21, 1-(2,2,2-Trifluoro-acetylamino)-cyclopropanecarboxylic acid{(rac)-6-[5-chloro-3-fluoro-2-(5-methyl-[1,2,4]oxadiazol-3-yl)-phenyl]-2,3-dihydro-benzo[b]thiophen-3-yl}-amide]", "values": [{"measurement": "Ki", "setting": "[1]", "result": 9.5, "unit": "nM"}, {"measurement": "IC50", "setting": "[2]", "result": 2.3, "unit": "nM"}]}, {"compound": "Cc1nc(-c2c(F)cc(Cl)cc2-c2ccc3c(c2)CC[C@@H]3NC(=O)C2(NC(=O)C(F)(F)F)COC2)no1", "note": "[Example 7, 3-(2,2,2-Trifluoro-acetylamino)-oxetane-3-carboxylic acid{(S)-5-[5-chloro-3-fluoro-2-(5-methyl-[1,2,4]oxadiazol-3-yl)-phenyl]-indan-1-yl}-amide]", "values": [{"measurement": "Ki", "setting": "[1]", "result": 37.4, "unit": "nM"}, {"measurement": "IC50", "setting": "[2]", "result": 28.6, "unit": "nM"}]}, {"compound": "Cn1nnc(-c2c(F)cc(Cl)cc2-c2ccc3c(c2)SCC3NC(=O)C2(NC(=O)c3ccno3)CC2)n1", "note": "(racemic) [Example 64, Isoxazole-5-carboxylic acid(1-{(rac)-6-[5-chloro-3-fluoro-2-(2-methyl-2H-tetrazol-5-yl)-phenyl]-2,3-dihydro-benzo[b]thiophen-3-ylcarbamoyl}-cyclopropyl)-amide]", "values": [{"measurement": "Ki", "setting": "[1]", "result": 7.1, "unit": "nM"}, {"measurement": "IC50", "setting": "[2]", "result": 0.5, "unit": "nM"}]}, {"compound": "Cc1nc(-c2c(F)cc(Cl)cc2-c2cc(F)c3c(c2)CCC3NC(=O)C2(NC(=O)c3ccnnc3)CC2)no1", "note": "(racemic) [Example 34, Pyridazine-4-carboxylic acid(1-{(rac)-5-[5-chloro-3-fluoro-2-(5-methyl-[1,2,4]oxadiazol-3-yl)-phenyl]-7-fluoro-indan-1-ylcarbamoyl}-cyclopropyl)-amide]", "values": [{"measurement": "Ki", "setting": "[1]", "result": 15.1, "unit": "nM"}, {"measurement": "IC50", "setting": "[2]", "result": 0.6, "unit": "nM"}]}, {"compound": "Cc1nc(-c2c(F)cc(Cl)cc2-c2ccc3c(c2)CCCC3NC(=O)C2(NC(=O)C(F)(F)F)CC2)no1", "note": "(racemic) [Example 11, 1-(2,2,2-Trifluoro-acetylamino)-cyclopropanecarboxylic acid{(rac)-6-[5-chloro-3-fluoro-2-(5-methyl-[1,2,4]oxadiazol-3-yl)-phenyl]-1,2,3,4-tetrahydro-naphthalen-1-yl}-amide]", "values": [{"measurement": "Ki", "setting": "[1]", "result": 41.6, "unit": "nM"}, {"measurement": "IC50", "setting": "[2]", "result": 4, "unit": "nM"}]}, {"compound": "Cc1nc(-c2c(F)cc(Cl)cc2-c2cnc3c(c2)CCC3NC(=O)C2(NC(=O)c3ccno3)CC2)no1", "note": "(racemic) [Example 43, Isoxazole-5-carboxylic acid(1-{(rac)-3-[5-chloro-3-fluoro-2-(5-methyl-[1,2,4]oxadiazol-3-yl)-phenyl]-6,7-dihydro-5H-[1]pyrindin-7-ylcarbamoyl}-cyclopropyl)-amide]", "values": [{"measurement": "Ki", "setting": "[1]", "result": 6.3, "unit": "nM"}, {"measurement": "IC50", "setting": "[2]", "result": 0.3, "unit": "nM"}]}, {"compound": "Cn1nnc(-c2c(F)cc(Cl)cc2-c2ccc3c(c2)SCC3NC(=O)C2(NC(=O)C(F)(F)F)CC2)n1", "note": "(racemic) [Example 22, 1-(2,2,2-Trifluoro-acetylamino)-cyclopropanecarboxylic acid{(rac)-6-[5-chloro-3-fluoro-2-(2-methyl-2H-tetrazol-5-yl)-phenyl]-2,3-dihydro-benzo[b]thiophen-3-yl}-amide]", "values": [{"measurement": "Ki", "setting": "[1]", "result": 6.6, "unit": "nM"}, {"measurement": "IC50", "setting": "[2]", "result": 0.8, "unit": "nM"}]}, {"compound": "COc1cc(C(=O)NC2(C(=O)NC3CSc4cc(-c5cc(Cl)cc(F)c5-c5nnn(C)n5)ccc43)CC2)on1", "note": "(racemic) [Example 65, 3-Methoxy-isoxazole-5-carboxylic acid(1-{(rac)-6-[5-chloro-3-fluoro-2-(2-methyl-2H-tetrazol-5-yl)-phenyl]-2,3-dihydro-benzo[b]thiophen-3-ylcarbamoyl}-cyclopropyl)-amide]", "values": [{"measurement": "Ki", "setting": "[1]", "result": 4.4, "unit": "nM"}, {"measurement": "IC50", "setting": "[2]", "result": 0.2, "unit": "nM"}]}, {"compound": "COC(=O)c1c(Cl)cccc1-c1ccc2c(c1)CCC2NC(=O)C1(NC(=O)C(F)(F)F)CC1", "note": "(racemic) [Example 3, (rac)-2-Chloro-6-(1-{[1-(2,2,2-trifluoro-acetylamino)-cyclopropanecarbonyl]-amino}-indan-5-yl)-benzoic acid methyl ester]", "values": [{"measurement": "Ki", "setting": "[1]", "result": 123, "unit": "nM"}, {"measurement": "IC50", "setting": "[2]", "result": 47.4, "unit": "nM"}]}, {"compound": "Cc1nc(-c2c(F)cc(Cl)cc2-c2ccc3c(c2)CC[C@@H]3NC(=O)C2(NC(=O)C(F)(F)F)CC2)no1", "note": "[Example 5, 1-(2,2,2-Trifluoro-acetylamino)-cyclopropanecarboxylic acid{(S)-5-[5-chloro-3-fluoro-2-(5-methyl-[1,2,4]oxadiazol-3-yl)-phenyl]-indan-1-yl}-amide]", "values": [{"measurement": "Ki", "setting": "[1]", "result": 6.2, "unit": "nM"}, {"measurement": "IC50", "setting": "[2]", "result": 0.6, "unit": "nM"}]}, {"compound": "Cc1nc(-c2c(F)cc(Cl)cc2-c2ccc3c(c2)CCC3(C)NC(=O)C2(NC(=O)C(F)(F)F)CC2)no1", "note": "(racemic) [Example 17, 1-(2,2,2-Trifluoro-acetylamino)-cyclopropanecarboxylic acid{(rac)-5-[5-chloro-3-fluoro-2-(5-methyl-[1,2,4]oxadiazol-3-yl)-phenyl]-1-methyl-indan-1-yl}-amide]", "values": [{"measurement": "Ki", "setting": "[1]", "result": 5.9, "unit": "nM"}, {"measurement": "IC50", "setting": "[2]", "result": 0.6, "unit": "nM"}]}]}
